From ChEMBL document CHEMBL1201862, “PubChem BioAssay data set” (2004)
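96-well plates; 48 h exposure; 5 concentrations. Endpoints by linear interpolation between flanking doses. Not reached: highest tested concentration assigned. GI50 marks 50% less growth.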 The source made the active and inactive calls. Rule as the data show it: active = GI50 up to about 1.1 µM and inactive = higher.

Experiments:
Test in all cases: NCI tumour cell line growth inhibition, 48 h
KM12 = tested on: KM12
MOLT-4 = tested on: MOLT-4
HCT-15 = tested on: HCT-15
DU-145 = tested on: DU-145
NCI/ADR-RES = tested on: NCI/ADR-RES
ACHN = tested on: ACHN
K562 = tested on: K562
OVCAR-8 = tested on: OVCAR-8
HL-60 = tested on: HL-60
SNB-19 = tested on: SNB-19
MDA-N = tested on: MDA-N
UO-31 = tested on: UO-31
Hs-578T = tested on: Hs-578T
CAKI-1 = tested on: CAKI-1
786-0 = tested on: 786-0
UACC-257 = tested on: UACC-257
EKVX = tested on: EKVX
MDA-MB-435 = tested on: MDA-MB-435
SK-MEL-5 = tested on: SK-MEL-5
SK-MEL-2 = tested on: SK-MEL-2

Row | Compound | GI50 (KM12) | GI50 (MOLT-4) | GI50 (HCT-15) [µM] | GI50 (DU-145) | GI50 (NCI/ADR-RES) | GI50 (ACHN) | GI50 (K562) | GI50 (OVCAR-8) | GI50 (HL-60) | GI50 (SNB-19) | GI50 (MDA-N) | GI50 (UO-31) | GI50 (Hs-578T) | GI50 (CAKI-1) | GI50 (786-0) | GI50 (UACC-257) | GI50 (EKVX) | GI50 (MDA-MB-435) | GI50 (SK-MEL-5) | GI50 (SK-MEL-2)
1 | O=c1c(C(c2ccc(OCc3ccccc3)cc2)c2c(O)oc3ccccc3c2=O)c(O)oc2ccccc12 | 29.6 µM (inactive) | 37.3 µM (inactive) | 41.7 | 67.6 µM (inactive) | 34.2 µM (inactive) | 23.4 µM (inactive) | 10 µM (inactive) | 33.4 µM (inactive) | 32.8 µM (inactive) | 40.6 µM (inactive) | 24.7 µM (inactive) | 19 µM (inactive) | 34.3 µM (inactive) | 27.2 µM (inactive) | 38.2 µM (inactive) | 78.9 µM (inactive) | 39 µM (inactive) | 41.9 µM (inactive) | 29.6 µM (inactive) | 61.1 µM (inactive)
2 | C=C1CC(Cn2cc(Br)c(=O)[nH]c2=O)(c2ccc(Br)cc2)OC1=O (stereo not given) | 4.02 µM (inactive) | 1.79 µM (inactive) | 1.83 | 5.65 µM (inactive) | 2.59 µM (inactive) | 3.66 µM (inactive) | 0.644 µM (active) | 15.3 µM (inactive) | 0.621 µM (active) | 15.8 µM (inactive) | 2.37 µM (inactive) | 14.1 µM (inactive) | 5.98 µM (inactive) | 2.38 µM (inactive) | 1.63 µM (inactive) | 1.82 µM (inactive) | 17.9 µM (inactive) | 2.88 µM (inactive) | 3.01 µM (inactive) | 1.72 µM (inactive)
3 | CCOP(=O)(OCC)/C(C#N)=C/c1[nH]cnc1C | > 100 µM (inactive) | > 100 µM (inactive) | > 100 | > 100 µM (inactive) | > 100 µM (inactive) | > 100 µM (inactive) | > 100 µM (inactive) | > 100 µM (inactive) | > 100 µM (inactive) | > 100 µM (inactive) | > 100 µM (inactive) | > 100 µM (inactive) | > 100 µM (inactive) | > 100 µM (inactive) | > 100 µM (inactive) | > 100 µM (inactive) | > 100 µM (inactive) | > 100 µM (inactive) | > 100 µM (inactive) | > 100 µM (inactive)
4 | CO[C@H]1SC[C@H](OC(C)=O)[C@H](OC(C)=O)[C@H]1OC(C)=O | > 100 µM (inactive) | > 100 µM (inactive) | > 100 | > 100 µM (inactive) | > 100 µM (inactive) | > 100 µM (inactive) | > 100 µM (inactive) | > 100 µM (inactive) | > 100 µM (inactive) | > 100 µM (inactive) | > 100 µM (inactive) | > 100 µM (inactive) | > 100 µM (inactive) | > 100 µM (inactive) | > 100 µM (inactive) | > 100 µM (inactive) | > 100 µM (inactive) | > 100 µM (inactive) | > 100 µM (inactive) | > 100 µM (inactive)
5 | CSC(=O)/C=C1\SS/C(=C\C(=O)SC)S1 | 5.05 µM (inactive) | 1.77 µM (inactive) | 2.06 | 10.5 µM (inactive) | 2.34 µM (inactive) | 2.99 µM (inactive) | 2.79 µM (inactive) | 3.44 µM (inactive) | 1.12 µM (active) | 6.92 µM (inactive) | 2.51 µM (inactive) | 2.43 µM (inactive) | 3.05 µM (inactive) | 1.39 µM (inactive) | 1.85 µM (inactive) | 3.06 µM (inactive) | 2.4 µM (inactive) | 2.29 µM (inactive) | 2.65 µM (inactive) | 2.15 µM (inactive)
6 | COc1cc(C(=O)N(C(=S)OCc2ccccn2)c2ccccc2)cc(OC)c1OC | > 100 µM (inactive) | 25.6 µM (inactive) | 39.6 | 33.8 µM (inactive) | 39.4 µM (inactive) | 42.3 µM (inactive) | 41.1 µM (inactive) | 62.2 µM (inactive) | 27 µM (inactive) | > 100 µM (inactive) | 96.4 µM (inactive) | 25.4 µM (inactive) | 53.7 µM (inactive) | 44.7 µM (inactive) | 77.8 µM (inactive) | > 100 µM (inactive) | 12.9 µM (inactive) | > 100 µM (inactive) | 35.2 µM (inactive) | > 100 µM (inactive)
7 | NC1CC(=O)c2c(I)sc(I)c21 (stereo not given) | 15.4 µM (inactive) | 12.1 µM (inactive) | 9.31 | 24 µM (inactive) | 26.9 µM (inactive) | 20.9 µM (inactive) | 8.95 µM (inactive) | 20.6 µM (inactive) | 4.24 µM (inactive) | 23.8 µM (inactive) | 19.7 µM (inactive) | 19.2 µM (inactive) | 30.3 µM (inactive) | 11.6 µM (inactive) | 11.2 µM (inactive) | 19.8 µM (inactive) | 19.9 µM (inactive) | 16.4 µM (inactive) | 27.6 µM (inactive) | 17.9 µM (inactive)
8 | CC(=O)c1c(-c2ccccc2)c(-c2ccc(OCCN(C)C)cc2)n2ccccc12 | 13.5 µM (inactive) | 15 µM (inactive) | 10.7 | 16.8 µM (inactive) | 14.5 µM (inactive) | 15.8 µM (inactive) | 13.4 µM (inactive) | 14.9 µM (inactive) | 16.3 µM (inactive) | 19.3 µM (inactive) | 15.8 µM (inactive) | 16.7 µM (inactive) | 16.3 µM (inactive) | 18.5 µM (inactive) | 18.3 µM (inactive) | 15.5 µM (inactive) | 17.5 µM (inactive) | 17.7 µM (inactive) | 10.3 µM (inactive) | 19.1 µM (inactive)
9 | OCc1cccc(Nc2nc(O)c3[nH]cnc3n2)c1 | > 100 µM (inactive) | > 100 µM (inactive) | > 100 | > 100 µM (inactive) | > 100 µM (inactive) | > 100 µM (inactive) | > 100 µM (inactive) | > 100 µM (inactive) | > 100 µM (inactive) | > 100 µM (inactive) | > 100 µM (inactive) | > 100 µM (inactive) | > 100 µM (inactive) | > 100 µM (inactive) | > 100 µM (inactive) | > 100 µM (inactive) | > 100 µM (inactive) | > 100 µM (inactive) | > 100 µM (inactive) | > 100 µM (inactive)
10 | CN(C)c1ccc(/C=c2\c3cc([N+](=O)[O-])ccc3n3c2cc(-c2ccccc2)[n+]3C)cc1 | 1.04 µM (active) | 1.75 µM (inactive) | 15.5 | 1.95 µM (inactive) | 39.8 µM (inactive) | 5.51 µM (inactive) | 0.265 µM (active) | 1.45 µM (inactive) | 0.292 µM (active) | 0.925 µM (active) | 0.437 µM (active) | 7.41 µM (inactive) | 1.62 µM (inactive) | 7.66 µM (inactive) | 3.31 µM (inactive) | 0.918 µM (active) | 0.998 µM (active) | 0.531 µM (active) | 0.318 µM (active) | 0.521 µM (active)
11 | CSc1nc(C)cc(N(C)c2ccccc2)n1 | 1.73 µM (inactive) | 29.7 µM (inactive) | 38.4 | 58.6 µM (inactive) | 25.2 µM (inactive) | 58.6 µM (inactive) | 44 µM (inactive) | 34.8 µM (inactive) | 32.8 µM (inactive) | 85.5 µM (inactive) | 24.1 µM (inactive) | 5.33 µM (inactive) | 32.4 µM (inactive) | 33 µM (inactive) | 38.5 µM (inactive) | 31.6 µM (inactive) | 37.8 µM (inactive) | 22.5 µM (inactive) | 25.6 µM (inactive) | 40 µM (inactive)
12 | O=C(Nc1cccc2cnccc12)c1cc2c(cc1Cl)Sc1nccn1S2(=O)=O | 4.66 µM (inactive) | 12.9 µM (inactive) | 8.71 | 13.6 µM (inactive) | 14.4 µM (inactive) | 28.3 µM (inactive) | 16.2 µM (inactive) | 10.3 µM (inactive) | 4.62 µM (inactive) | 17.9 µM (inactive) | 7.01 µM (inactive) | 18.6 µM (inactive) | 20.1 µM (inactive) | 25.8 µM (inactive) | 10.9 µM (inactive) | 18.1 µM (inactive) | 20.7 µM (inactive) | 6.76 µM (inactive) | 12.1 µM (inactive) | 13.5 µM (inactive)
13 | N#CC(c1ccccc1)N1CCCN(C(C#N)c2ccccc2)C1c1ccccc1O (stereo not given) | > 100 µM (inactive) | 61.1 µM (inactive) | > 100 | > 100 µM (inactive) | > 100 µM (inactive) | > 100 µM (inactive) | > 100 µM (inactive) | > 100 µM (inactive) | 0.0362 µM (active) | > 100 µM (inactive) | > 100 µM (inactive) | > 100 µM (inactive) | > 100 µM (inactive) | > 100 µM (inactive) | > 100 µM (inactive) | > 100 µM (inactive) | > 100 µM (inactive) | > 100 µM (inactive) | > 100 µM (inactive) | > 100 µM (inactive)
14 | Clc1ccc(C2C3COc4ccccc4C3=NN2c2ccccc2)cc1 (stereo not given) | 20.7 µM (inactive) | 8.73 µM (inactive) | 17.9 | > 80.5 µM (inactive) | 29.7 µM (inactive) | > 100 µM (inactive) | 3.19 µM (inactive) | > 69.5 µM (inactive) | 27.4 µM (inactive) | > 46.9 µM (inactive) | 22.8 µM (inactive) | > 100 µM (inactive) | 54.2 µM (inactive) | 58.9 µM (inactive) | > 29.6 µM (inactive) | > 100 µM (inactive) | > 100 µM (inactive) | 36.5 µM (inactive) | > 82.8 µM (inactive) | > 75.3 µM (inactive)
